For orientation: IC50 means the concentration needed to halve the response being measured.

In assay [1] the target is T1, PAF Binding, dog platelets (Canis lupus familiaris, UniProt A0A8I3NSH0).
T1 construct: Washed platelets were prepared by resuspending the platelet pellet once with PBS containing 1 mM EDTA; from tissue; host or cells: washed platelets from dog blood
T1 sequence (A0A8I3NSH0 1-343): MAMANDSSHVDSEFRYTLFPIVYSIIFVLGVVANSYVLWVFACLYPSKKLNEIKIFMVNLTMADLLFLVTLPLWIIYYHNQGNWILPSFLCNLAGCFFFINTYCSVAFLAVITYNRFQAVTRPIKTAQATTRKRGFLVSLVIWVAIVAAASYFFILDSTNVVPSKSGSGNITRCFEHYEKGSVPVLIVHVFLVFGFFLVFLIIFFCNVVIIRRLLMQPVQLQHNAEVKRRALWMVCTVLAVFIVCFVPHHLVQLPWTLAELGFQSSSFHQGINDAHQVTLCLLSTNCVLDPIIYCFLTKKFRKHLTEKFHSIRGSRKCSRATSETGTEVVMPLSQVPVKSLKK
Kind of assay: PAF Binding Assay (inhibition of 3H-PAF binding to washed dog platelets). As to conditions: dog platelets, 3H-PAF, 10 minutes at room temperature; read-out: Inhib of PAF Binding IC50. The gist of the method:
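Washed dog platelets (2×10^7 per tube, in 0.1% BSA-PBS) incubated 10 min at room temperature with 3H-PAF and test analogs. Bound ligand separated by 1 min centrifugation through silicone oil; platelet pellet radioactivity counted by liquid scintillation.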

Assay [2] relates to PAF-Induced Bronchoconstriction. Kind of assay: PAF Induced Bronchoconstriction Assay. The format is in vivo, guinea pig. As to conditions: for inhibition in vivo at 50 mg/kg: Cavia porcellus, po, 50 mg/Kg p.o., 2-hour pretreatment, read-out: Percent Inhib. of PAF-Induced Bronchoconstriction, 50 mg/Kg p.o.; for Percent Inhib. of PAF-Induced Bronchoconstriction, mg/Kg i.v.: i.v. (dose not given), 1 minute pretreatment, PAF 1.0 μg/kg i.v. An outline of the steps:
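Male Hartley guinea pigs, urethane-anesthetized (2 g/kg i.p.), ventilated, with succinylcholine 1.2 mg/kg i.v. and propranolol 0.1 mg/kg i.v. pretreatment. Compound given i.v. 1 min or by oral gavage 2 h before i.v. PAF challenge at 1.0 μg/kg. Peak tracheal pressure rise over baseline compared with control mean gives % inhibition.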

For assay [3], the system named is PAF-Induced Platelet Count Decrease. Kind of assay: PAF Induced Platelet Count Decrease. The format is in vivo, guinea pig. The settings on record: for inhibition in vivo at 3 mg/kg: Cavia porcellus, Platelet, 3 mg/Kg (route not given), read-out: Percent Inhib. of PAF-Induced Platelet Count Decrease, 3 mg/Kg. As for the experimental part:
PAF Induced Platelet Count Decrease
Male Hartley guinea pigs weighing between 500 and 900 grams were fed standard guinea pig chow and tap water ad libitum. PAF was solubilized in ethanol and stored as a 2 mM stock solution at -70° C. The stock solutuion of PAF was diluted to 1 pM in Tris buffer pH 7.4 and 0.1% BSA for all experiments.
(a) Intravenous Procedure
Guinea pigs were anesthetized with urethane (1.6 g/kg, i.p.). A catheter (PE50) was introduced into the right carotid artery for withdrawing blood. A second catheter PE10) was introduced into the jugular vein for injecting drugs and for administering the PAF challenge (75 ng/kg, i.v.). A control blood sample was obtained and platelets were counted in a whole blood platelet analyzer. PAF was then given and blood samples were taken 15, 30, and 60 seconds after the challenge for platelet counts. Fifteen minutes later, selected concentrations of the test compound were solubilized in DMSO and injected intravenously into a group of 4-6 animals. Only one concentration of antagonist was used in each animal group. Fifteen minutes after drug injection, blood smaples were taken before and 15, 30, and 60 sec after the PAF challenge, and analyzed for platelet number.
Animals were anesthetized with sodium pentobarbital (35 mg/kg. i.p.) and the caritoid artery and jugular vein were cannulated as described above. The cannulae were exteriorized at the base of the neck and the animals were allowed to recover. At least 18 hours after surgery, conscious unrestrained guinea pigs were used in the experiment. The animals were challenged two time with PAF (120 ng/kg. i.v.); the first to establish a consistent response to PAF and the second to serve as a control for the PAF challenge. Blood samples were taken before and 15, 30, and 45 seconds after PAF challenge and platelets were counted. Thirty minutes after the control PAF challenge, the animal were orally dosed with either gum acacia or the test compound. Animals were then challenged with PAF at 1, 3, 5, and 24 hours after the administration of the drug.
Data Analysis and Statistics
The % change, i.e., the difference in platelet number before and after PAF challenge was calculated by: [formula]
Statistical significance (p<0.05) of the difference between the mean PAF control and mean drug treated activity was determined with paried Students's t-test.

Turning to `COc1cccc(C(=C/C=C/C(=O)NCCCCc2cccnc2)c2cccc(OC)c2)c1` [(E)-5,5-bis (3-methoxyphenyl)-N-[4-(3-pyridinyl)butyl]-2,4-pentadienamide], the IC50 in assay [1] was found to be 2 nM. Besides, in assay [2], the inhibition in vivo at 50 mg/kg was determined as 31 ± 11% and the “Percent Inhib. of PAF-Induced Bronchoconstriction, mg/Kg i.v.” value was determined as 69 ± 7%. Also, the “Percent Inhib. of PAF-Induced Platelet Count Decrease, 30 mg/Kg p.o.” value in assay [3] (30 mg/Kg p.o.) was determined as 48%. Also, the inhibition in vivo at 3 mg/kg in assay [3] stood at 75%.
On to `O=C(/C=C/C=C(c1ccccc1)c1ccccc1)NCCCCc1cccnc1` [(E)-5,5-Diphenyl-N-[4-(3-pyridinyl)butyl]-2,4-pentadienamide], for which the IC50 in assay [1] is 55 nM. In assay [2], the inhibition in vivo at 50 mg/kg was 12 ± 1% and the “Percent Inhib. of PAF-Induced Bronchoconstriction, mg/Kg i.v.” value was found to be 35 ± 15%. In assay [3], the inhibition in vivo at 3 mg/kg was determined as 14%.
`COc1cccc(/C(=C/C=C/C(=O)NCCCCc2cccnc2)c2ccccc2)c1` [(2E,4E)-5-(3-Methoxyphenyl)-5-phenyl-N-[4-(3-pyridinyl)butyl]-2,4-pentadienamide]: the 50% inhibitory concentration (IC50) in assay [1] was determined as 20 nM. The inhibition in vivo at 50 mg/kg in assay [2] is 13 ± 18%. The inhibition in vivo at 3 mg/kg in assay [3] is 40%.
Turning to `COc1cccc(C(=C/C=C/C(=O)N[C@H](C)CCCc2cccnc2)c2cccc(OC)c2)c1` [[R-(E)]-5,5-bis (3-methoxyphenyl)-N-[1-methyl-4-(3-pyridinyl)butyl]-2,4-pentadienamide], in assay [1], the IC50 came to 35 nM. Besides, in assay [2], the inhibition in vivo at 50 mg/kg stood at 87 ± 8% and the “Percent Inhib. of PAF-Induced Bronchoconstriction, mg/Kg i.v.” value was 87 ± 4%. The inhibition in vivo at 3 mg/kg in assay [3] was 31%.
Taken in the same sequence, the figures for `O=C(/C=C/C=C(c1ccc(F)cc1)c1ccc(F)cc1)NCCCCc1cccnc1` [(E)-5,5-bis(4-fluorophenyl)-N-[4-(3-pyridinyl)butyl]-2,4-pentadienamide] were 40 nM, 97 ± 1%, 91 ± 3% and 18%.

For the origin of these results see patent US4788206A, “Pentadieneamides” (Hoffmann-La Roche Inc., priority 1987, dated 1988).
